Series [1] is described as follows: Aqueous solubility in buffer solution at pH 1.2. Format: physicochemical.
For series [2], the target named is T1, Serine/threonine-protein kinase D1 (Homo sapiens, UniProt Q15139).
T1 sequence (Q15139 whole entry): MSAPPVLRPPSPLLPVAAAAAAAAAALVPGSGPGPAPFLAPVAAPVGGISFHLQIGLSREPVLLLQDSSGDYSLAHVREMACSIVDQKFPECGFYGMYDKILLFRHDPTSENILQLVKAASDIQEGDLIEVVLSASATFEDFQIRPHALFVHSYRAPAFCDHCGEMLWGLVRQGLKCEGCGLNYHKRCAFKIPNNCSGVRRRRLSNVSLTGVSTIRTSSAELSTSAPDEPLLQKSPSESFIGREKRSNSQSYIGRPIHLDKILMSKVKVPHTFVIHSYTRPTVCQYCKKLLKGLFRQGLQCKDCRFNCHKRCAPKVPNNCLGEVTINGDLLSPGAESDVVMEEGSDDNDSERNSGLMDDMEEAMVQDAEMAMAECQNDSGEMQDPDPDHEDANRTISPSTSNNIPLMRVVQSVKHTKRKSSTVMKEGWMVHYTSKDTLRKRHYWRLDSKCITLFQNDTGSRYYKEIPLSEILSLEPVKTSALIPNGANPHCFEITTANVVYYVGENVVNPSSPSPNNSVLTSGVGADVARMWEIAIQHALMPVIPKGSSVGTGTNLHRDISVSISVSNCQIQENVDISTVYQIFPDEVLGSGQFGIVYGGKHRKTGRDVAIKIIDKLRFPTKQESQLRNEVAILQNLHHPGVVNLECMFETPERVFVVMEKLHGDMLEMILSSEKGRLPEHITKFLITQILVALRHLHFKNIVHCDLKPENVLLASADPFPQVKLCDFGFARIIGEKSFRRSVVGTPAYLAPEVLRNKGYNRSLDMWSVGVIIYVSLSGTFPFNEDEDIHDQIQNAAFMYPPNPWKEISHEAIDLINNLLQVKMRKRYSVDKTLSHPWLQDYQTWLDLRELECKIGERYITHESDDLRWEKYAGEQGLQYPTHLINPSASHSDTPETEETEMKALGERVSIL
The experiment in a line: Inhibition of PKCmu.

The target in series [3] is Vascular endothelial growth factor receptor 1 (Homo sapiens, UniProt P17948). Briefly: Inhibition of VEGFR1.
Series [4] has as its target Vascular endothelial growth factor receptor 2 (Homo sapiens, UniProt P35968). The experiment in a line: Inhibition of VEGFR2.
The target of series [5] is Vascular endothelial growth factor receptor 3 (Homo sapiens, UniProt P35916). Briefly: Inhibition of VEGFR3.
Series [6] addresses Platelet-derived growth factor receptor alpha (Homo sapiens, UniProt P16234). The experiment in a line: Inhibition of PDGFRalpha.
Series [7] can be described thus: Metabolic stability assessed as 3-((4-(2-hydroxyquinolin-6-yl)-5-(6-methylpyridin-2-yl)-1H-imidazol-2-yl)methyl)benzamide or 3-((4-(3-hydroxyquinolin-6-yl)-5-(6-methylpyridin-2-yl)-1H-imidazol-2-yl)methyl)benzamide levels at 120 uM by HPLC analysis in presence human recombinant CYP2C8. Format: ADME. As to conditions: recombinant enzyme.
Series [8] in a line: Metabolic stability assessed as 3-((4-(2-hydroxyquinolin-6-yl)-5-(6-methylpyridin-2-yl)-1H-imidazol-2-yl)methyl)benzamide or 3-((4-(3-hydroxyquinolin-6-yl)-5-(6-methylpyridin-2-yl)-1H-imidazol-2-yl)methyl)benzamide levels at 120 uM by HPLC analysis in presence human recombinant CYP2C19. The series is classed as ADME. As to conditions: recombinant enzyme.
Series [9] is described as follows: Metabolic stability assessed as 3-((4-(2-hydroxyquinolin-6-yl)-5-(6-methylpyridin-2-yl)-1H-imidazol-2-yl)methyl)benzamide or 3-((4-(3-hydroxyquinolin-6-yl)-5-(6-methylpyridin-2-yl)-1H-imidazol-2-yl)methyl)benzamide levels at 120 uM by HPLC analysis in presence human recombinant CYP3A4. The series is classed as ADME. The settings on record: recombinant enzyme.
The next series concerns the target T2, TGF-beta receptor type-1 (Homo sapiens, UniProt P36897).
T2 sequence (P36897 whole entry): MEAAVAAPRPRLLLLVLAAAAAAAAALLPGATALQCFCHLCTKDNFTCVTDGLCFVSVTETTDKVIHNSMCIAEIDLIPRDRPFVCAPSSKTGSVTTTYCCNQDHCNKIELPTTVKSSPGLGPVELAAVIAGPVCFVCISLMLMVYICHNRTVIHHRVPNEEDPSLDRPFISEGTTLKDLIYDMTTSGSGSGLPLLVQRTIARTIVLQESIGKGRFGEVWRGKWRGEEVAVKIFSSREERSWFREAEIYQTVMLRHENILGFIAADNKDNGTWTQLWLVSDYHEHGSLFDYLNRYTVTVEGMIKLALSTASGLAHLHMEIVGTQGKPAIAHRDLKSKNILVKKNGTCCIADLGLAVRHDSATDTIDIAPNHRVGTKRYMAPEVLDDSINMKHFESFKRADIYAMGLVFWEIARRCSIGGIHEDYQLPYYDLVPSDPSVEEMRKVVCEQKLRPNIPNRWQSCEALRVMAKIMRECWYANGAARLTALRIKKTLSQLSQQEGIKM

For series [10], the target named is Mitogen-activated protein kinase 14 (Homo sapiens, UniProt Q16539).
Series [11] in a line: Metabolic stability assessed as 3-((4-(2-hydroxyquinoxalin- 6-yl)-5-(6-methylpyridin-2-yl)-1H-imidazol-2-yl)methyl)benzamide or 3-((4-(3-hydroxyquinoxalin-6-yl)-5-(6-methylpyridin-2-yl)- 1H-imidazol-2-yl)methyl)benzamide) levels at 120 uM by HPLC analysis in presence human recombinant CYP2C8. Format: ADME. As to conditions: recombinant enzyme.
A short description of series [12]: Metabolic stability assessed as 3-((4-(2-hydroxyquinoxalin- 6-yl)-5-(6-methylpyridin-2-yl)-1H-imidazol-2-yl)methyl)benzamide or 3-((4-(3-hydroxyquinoxalin-6-yl)-5-(6-methylpyridin-2-yl)- 1H-imidazol-2-yl)methyl)benzamide) levels at 120 uM by HPLC analysis in presence human recombinant CYP2C19. Format: ADME. The settings on record: recombinant enzyme.
The nature of series [13]: Metabolic stability assessed as 3-((4-(2-hydroxyquinoxalin- 6-yl)-5-(6-methylpyridin-2-yl)-1H-imidazol-2-yl)methyl)benzamide or 3-((4-(3-hydroxyquinoxalin-6-yl)-5-(6-methylpyridin-2-yl)- 1H-imidazol-2-yl)methyl)benzamide) levels at 120 uM by HPLC analysis in presence human recombinant CYP2D6. The series is classed as ADME. The settings on record: recombinant enzyme.
The nature of series [14]: Metabolic stability assessed as 3-((4-(2-hydroxyquinoxalin- 6-yl)-5-(6-methylpyridin-2-yl)-1H-imidazol-2-yl)methyl)benzamide or 3-((4-(3-hydroxyquinoxalin-6-yl)-5-(6-methylpyridin-2-yl)- 1H-imidazol-2-yl)methyl)benzamide) levels at 120 uM by HPLC analysis in presence human recombinant CYP3A4. The series is classed as ADME. The settings on record: recombinant enzyme.

In brackets after ≈: the same amount, converted by molar mass.

Vascular endothelial growth factor receptor 2, sequence (P35968 whole entry): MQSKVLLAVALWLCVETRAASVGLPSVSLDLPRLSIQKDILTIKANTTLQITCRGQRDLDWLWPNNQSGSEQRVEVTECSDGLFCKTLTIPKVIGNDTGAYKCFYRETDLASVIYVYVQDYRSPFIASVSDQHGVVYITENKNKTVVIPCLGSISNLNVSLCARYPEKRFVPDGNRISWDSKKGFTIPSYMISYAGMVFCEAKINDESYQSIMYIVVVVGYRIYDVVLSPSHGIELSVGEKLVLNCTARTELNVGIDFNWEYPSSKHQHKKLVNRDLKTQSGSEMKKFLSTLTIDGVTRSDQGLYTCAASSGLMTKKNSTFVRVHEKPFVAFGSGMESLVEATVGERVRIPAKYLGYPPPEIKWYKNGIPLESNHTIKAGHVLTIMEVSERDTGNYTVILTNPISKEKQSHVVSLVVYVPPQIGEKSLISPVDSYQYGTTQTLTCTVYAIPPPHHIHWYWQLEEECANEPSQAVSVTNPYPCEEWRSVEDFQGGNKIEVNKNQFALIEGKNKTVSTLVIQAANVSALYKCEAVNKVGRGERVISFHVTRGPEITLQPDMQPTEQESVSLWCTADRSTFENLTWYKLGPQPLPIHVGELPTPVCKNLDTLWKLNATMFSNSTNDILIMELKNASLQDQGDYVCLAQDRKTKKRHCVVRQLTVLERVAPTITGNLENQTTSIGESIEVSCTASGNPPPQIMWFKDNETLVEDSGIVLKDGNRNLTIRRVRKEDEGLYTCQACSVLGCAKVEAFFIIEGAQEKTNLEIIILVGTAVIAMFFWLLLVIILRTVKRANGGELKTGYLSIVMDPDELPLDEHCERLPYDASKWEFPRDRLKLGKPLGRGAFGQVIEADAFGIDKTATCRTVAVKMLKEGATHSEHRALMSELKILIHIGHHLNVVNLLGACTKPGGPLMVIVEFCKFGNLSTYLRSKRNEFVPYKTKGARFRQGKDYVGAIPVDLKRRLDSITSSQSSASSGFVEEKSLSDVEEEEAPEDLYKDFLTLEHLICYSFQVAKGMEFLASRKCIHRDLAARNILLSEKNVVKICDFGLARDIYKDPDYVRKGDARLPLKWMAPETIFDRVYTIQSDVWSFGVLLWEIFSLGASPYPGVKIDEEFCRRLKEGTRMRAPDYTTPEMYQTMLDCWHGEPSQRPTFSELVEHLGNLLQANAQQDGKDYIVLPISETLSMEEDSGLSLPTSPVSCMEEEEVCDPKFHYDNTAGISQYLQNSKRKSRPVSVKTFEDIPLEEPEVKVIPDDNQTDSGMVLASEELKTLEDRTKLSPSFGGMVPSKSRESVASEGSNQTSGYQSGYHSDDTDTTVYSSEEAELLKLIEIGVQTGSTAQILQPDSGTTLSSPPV
Vascular endothelial growth factor receptor 3, sequence (P35916 whole entry): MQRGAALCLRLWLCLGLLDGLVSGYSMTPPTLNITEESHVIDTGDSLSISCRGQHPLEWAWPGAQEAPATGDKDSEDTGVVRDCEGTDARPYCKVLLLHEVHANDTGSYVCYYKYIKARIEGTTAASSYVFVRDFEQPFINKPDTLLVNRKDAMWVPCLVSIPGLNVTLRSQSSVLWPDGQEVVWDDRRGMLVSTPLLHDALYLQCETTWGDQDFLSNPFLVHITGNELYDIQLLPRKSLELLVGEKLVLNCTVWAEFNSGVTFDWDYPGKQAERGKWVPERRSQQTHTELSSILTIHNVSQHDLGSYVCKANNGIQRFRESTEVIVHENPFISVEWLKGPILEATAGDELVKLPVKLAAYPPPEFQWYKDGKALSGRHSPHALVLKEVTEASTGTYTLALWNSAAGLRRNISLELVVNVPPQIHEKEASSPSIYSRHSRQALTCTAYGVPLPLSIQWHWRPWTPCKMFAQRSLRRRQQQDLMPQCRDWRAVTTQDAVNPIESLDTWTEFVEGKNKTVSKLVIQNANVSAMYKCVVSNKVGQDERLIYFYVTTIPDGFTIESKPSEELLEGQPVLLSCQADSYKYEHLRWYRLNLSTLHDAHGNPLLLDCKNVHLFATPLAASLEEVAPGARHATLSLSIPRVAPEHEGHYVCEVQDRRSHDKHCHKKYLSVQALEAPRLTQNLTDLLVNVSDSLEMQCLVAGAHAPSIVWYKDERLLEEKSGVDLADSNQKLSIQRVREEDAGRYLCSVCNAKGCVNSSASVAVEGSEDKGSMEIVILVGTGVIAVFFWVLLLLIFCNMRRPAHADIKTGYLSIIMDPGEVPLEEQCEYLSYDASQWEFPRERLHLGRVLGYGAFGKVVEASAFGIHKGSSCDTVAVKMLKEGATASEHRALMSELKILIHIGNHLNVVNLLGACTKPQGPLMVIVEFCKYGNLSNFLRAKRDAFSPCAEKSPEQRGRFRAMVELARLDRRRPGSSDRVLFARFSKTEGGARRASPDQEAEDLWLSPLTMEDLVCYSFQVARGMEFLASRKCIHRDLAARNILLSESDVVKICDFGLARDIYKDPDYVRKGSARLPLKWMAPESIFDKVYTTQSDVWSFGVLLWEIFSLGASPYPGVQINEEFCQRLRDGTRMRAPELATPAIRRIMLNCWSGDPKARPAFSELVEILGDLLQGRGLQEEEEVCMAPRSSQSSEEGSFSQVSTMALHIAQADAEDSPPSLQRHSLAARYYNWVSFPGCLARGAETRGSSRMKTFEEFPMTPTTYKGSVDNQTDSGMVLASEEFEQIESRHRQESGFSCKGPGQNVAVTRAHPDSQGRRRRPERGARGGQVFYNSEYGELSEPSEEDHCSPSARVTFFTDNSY
Mitogen-activated protein kinase 14, sequence (Q16539 whole entry): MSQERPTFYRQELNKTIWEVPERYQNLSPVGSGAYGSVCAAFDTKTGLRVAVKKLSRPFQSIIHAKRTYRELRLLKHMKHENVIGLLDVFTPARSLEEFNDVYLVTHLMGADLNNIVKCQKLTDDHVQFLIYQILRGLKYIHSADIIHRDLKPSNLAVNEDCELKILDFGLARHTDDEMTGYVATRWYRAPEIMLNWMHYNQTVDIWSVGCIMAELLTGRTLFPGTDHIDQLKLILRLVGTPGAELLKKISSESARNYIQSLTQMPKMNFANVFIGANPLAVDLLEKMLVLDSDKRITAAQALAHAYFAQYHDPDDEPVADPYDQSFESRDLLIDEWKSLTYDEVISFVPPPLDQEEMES
Platelet-derived growth factor receptor alpha, sequence (P16234 whole entry): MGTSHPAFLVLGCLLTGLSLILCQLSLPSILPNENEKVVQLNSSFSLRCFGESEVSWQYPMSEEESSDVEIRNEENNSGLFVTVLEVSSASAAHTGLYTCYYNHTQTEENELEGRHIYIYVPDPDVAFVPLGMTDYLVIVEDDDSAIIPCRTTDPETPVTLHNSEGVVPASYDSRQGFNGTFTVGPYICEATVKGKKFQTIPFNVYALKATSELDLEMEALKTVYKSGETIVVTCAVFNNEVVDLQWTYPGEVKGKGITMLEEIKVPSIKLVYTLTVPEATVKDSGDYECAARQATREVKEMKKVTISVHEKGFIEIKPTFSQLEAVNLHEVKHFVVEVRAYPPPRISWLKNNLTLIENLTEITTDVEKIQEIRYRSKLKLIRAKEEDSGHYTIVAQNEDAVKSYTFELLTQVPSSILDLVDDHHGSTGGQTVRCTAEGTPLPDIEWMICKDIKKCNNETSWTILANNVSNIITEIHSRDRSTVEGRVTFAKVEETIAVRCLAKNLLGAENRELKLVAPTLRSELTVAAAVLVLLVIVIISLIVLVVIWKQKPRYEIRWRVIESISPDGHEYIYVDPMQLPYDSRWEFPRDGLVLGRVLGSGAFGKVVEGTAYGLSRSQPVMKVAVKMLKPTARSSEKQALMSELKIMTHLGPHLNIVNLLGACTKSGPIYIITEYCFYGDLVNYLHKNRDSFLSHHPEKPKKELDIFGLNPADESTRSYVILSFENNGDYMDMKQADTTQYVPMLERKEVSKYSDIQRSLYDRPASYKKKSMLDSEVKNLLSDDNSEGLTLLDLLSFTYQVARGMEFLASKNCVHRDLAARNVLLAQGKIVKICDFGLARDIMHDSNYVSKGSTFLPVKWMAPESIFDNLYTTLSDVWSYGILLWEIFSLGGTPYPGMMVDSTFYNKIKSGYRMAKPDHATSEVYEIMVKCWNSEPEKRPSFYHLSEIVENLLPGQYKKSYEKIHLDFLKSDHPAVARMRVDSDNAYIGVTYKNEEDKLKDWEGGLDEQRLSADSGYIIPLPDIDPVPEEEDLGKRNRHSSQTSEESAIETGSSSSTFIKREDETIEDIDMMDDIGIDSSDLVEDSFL
Description for TGF-beta receptor type-1: Inhibition of human recombinant GST-fused ALK5 expressed in Sf9 cells

For orientation: solubility means the concentration that dissolves in the medium under given conditions. Read a high solubility as much dissolved substance. What is called IC50 is the concentration that inhibits the measured activity by half. A higher IC50 goes with lower potency. `Cc1cccc(-c2nc(Cc3cccc(C(N)=O)c3)[nH]c2-c2ccc3ncccc3c2)n1` came in with a solubility in series [1] of 14.3 mg/mL (≈ 34.1 mM). The IC50 in [2] amounted to 650 nM; in series [3], 2100 nM; in series [4], 2200 nM; in [5], 940 nM; in series [6], 3000 nM; against TGF-beta receptor type-1 it was 34 nM. The compound further registered a half-maximal inhibitory concentration (IC50) in series [10] of 540 nM. Also, the Stability in [7] stood at 1.99 peak area; in series [8], 11.3 peak area; in series [9], 10.6 peak area.

`Cc1cccc(-c2[nH]c(Cc3cccc(C#N)c3)nc2-c2ccc3ncccc3c2)n1` registered a solubility in series [1] of 7.1 mg/mL (≈ 17.7 mM).

With `Cc1cccc(-c2[nH]c(Cc3cccc(C(N)=O)c3)nc2-c2ccc3nccnc3c2)n1`, the Stability in series [11] turned out to be 33.4 peak area; in series [12] it was 12.4 peak area; in series [13], 15.4 peak area; in series [14] it was 17 peak area.

For the origin of these results see ChEMBL document CHEMBL1165953, “Synthesis and biological evaluation of 4(5)-(6-methylpyridin-2-yl)imidazoles and -pyrazoles as transforming growth factor-beta type 1 receptor kinase inhibitors” (Bioorg Med Chem, 2010).
